From PubChem BioAssay (NCI) come the findings set out here.

Values joined by “and” are separate entries in the source; they are usually repeats but may differ in a detail not shown here. Equal values may be shown once.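 Protocol summary: plate cells (96-well), add compound at 5 concentrations, incubate 48 h, interpolate endpoints linearly. Here, GI50 denotes the concentration required for 50% inhibition of growth. TGI: total growth inhibition.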

Among the test systems are A498 renal; A549 NSCLC; HCT-116 colon; HCT-15 colon; K-562 leukemia; MALME-3M melanoma; RPMI-8226 leukemia; SNB-19 CNS; SNB-75 CNS; UACC-257 melanoma.
Common to all, as to test: NCI tumour cell line growth inhibition, 48 h

Consider `CCCCC(CC)C(=O)Oc1ccc(C(=O)c2ccccc2)c(O)c1` (stereo not drawn), for which the TGI in the test with A498 renal, in the test with A549 NSCLC, with HCT-116 colon, with HCT-15 colon, with K-562 leukemia and in the test on MALME-3M melanoma was > 100 µM throughout. The TGI with RPMI-8226 leukemia is > 100 µM; in the test on SNB-19 CNS it was > 100 µM; in the test on SNB-75 CNS, 74.3 µM; in the test on UACC-257 melanoma, > 100 µM.
For `C[C@@]12CC[C@@H](O)C[C@@H]1CC[C@H]1[C@H]2CC[C@@]2(C)[C@H](c3ccc(=O)oc3)CC[C@@]12O`, the GI50 in the test on A498 renal, with A549 NSCLC, in the test on HCT-116 colon, with HCT-15 colon, with K-562 leukemia and in the test with MALME-3M melanoma was < 0.01 µM in each case. For the same compound, the GI50 in the test with RPMI-8226 leukemia is < 0.01 µM; in the test on SNB-19 CNS it was < 0.0104 µM; with SNB-75 CNS it was < 0.01 µM; with UACC-257 melanoma it was < 0.0135 µM. The TGI in the test on A498 renal is 0.0445 µM; in the test with HCT-116 colon it was 0.0122 µM; in the test with HCT-15 colon, 0.0292 µM; in the test with K-562 leukemia it was 0.0309 µM; in the test with MALME-3M melanoma, 0.0174 µM; in the test on SNB-19 CNS, 0.0755 µM. For the same compound, the TGI was 0.0263 µM with SNB-75 CNS and 0.0467 µM in the test with UACC-257 melanoma.
Consider `CCOC(=O)c1sc2nc(SC)nc3c2c1NC(=O)CN3c1ccc(F)cc1`, for which the TGI in the test on A498 renal was 98.7 µM; in the test on A549 NSCLC, 50.9 µM; in the test with HCT-116 colon, > 100 µM; in the test with K-562 leukemia, > 100 µM; with MALME-3M melanoma, > 100 µM; in the test with RPMI-8226 leukemia, > 100 µM. The TGI in the test on SNB-19 CNS and in the test on UACC-257 melanoma was > 100 µM in each case.
`CCCCCCCCCCCCCCCCCCN(C)CC(COC)OP(=O)([O-])OCC[N+](C)(C)C` (stereo not drawn): the TGI in the test with A498 renal is 14 µM; in the test with A549 NSCLC it was 7.69 µM; in the test on HCT-116 colon, 11.8 µM; in the test with HCT-15 colon it was 13.6 µM; in the test with K-562 leukemia, 40.2 µM; in the test with MALME-3M melanoma, 26.6 µM. For the same compound, the TGI is 3.14 µM in the test with RPMI-8226 leukemia, 2.5 µM in the test on SNB-19 CNS, 3.68 µM in the test with SNB-75 CNS and 22.7 µM with UACC-257 melanoma.
For `O=C1c2cc3c(cc2[C@@H]2C(O)[C@H]4O[C@H]4C4CCN1C42)OCO3` (stereo partly drawn), the TGI in the test with A549 NSCLC, in the test on HCT-116 colon, with HCT-15 colon, with K-562 leukemia, with MALME-3M melanoma and with RPMI-8226 leukemia was > 37.5 µM throughout. Moreover, in the test with SNB-19 CNS, the TGI was > 37.5 µM.
For the compound `Cc1ccc(C(=O)NC2C(=O)NC(C(C)C)C(=O)N3CCCC3C(=O)N(C)CC(=O)N(C)C(C(C)C)C(=O)OC2C)c2c1Oc1c(c(C(=O)NC3C(=O)NC(C(C)C)C(=O)N4CCCC4C(=O)N(C)CC(=O)N(C)C(C(C)C)C(=O)OC3C)c3nc(-c4ccccc4)c(=O)oc3c1C)N2` (stereo not drawn), the TGI in the test with A498 renal was 0.00273 µM; in the test with A549 NSCLC, > 100 µM; in the test with HCT-15 colon, 0.646 µM and 0.318 µM; in the test with MALME-3M melanoma, 0.195 µM and 0.0239 µM; in the test on RPMI-8226 leukemia, 0.0442 µM; in the test with SNB-19 CNS, 21.4 µM. Also, the TGI in the test on SNB-75 CNS amounted to 0.0132 µM; in the test with UACC-257 melanoma, 0.122 µM. In the test on HCT-15 colon, the GI50 is 0.0159 µM.
As for `c1ccc(-c2cc3nc4ccccc4nc3cc(-c3ccccc3)[nH][nH]2)cc1`, the TGI is 55.7 µM with A498 renal; > 100 µM in the test with A549 NSCLC; > 100 µM with HCT-116 colon; > 100 µM in the test on HCT-15 colon; > 100 µM in the test with K-562 leukemia; > 100 µM with MALME-3M melanoma. For the same compound, the TGI is > 100 µM in the test with RPMI-8226 leukemia, > 100 µM with SNB-19 CNS, 99.1 µM in the test on SNB-75 CNS and > 100 µM in the test with UACC-257 melanoma.
Turning to `Nc1[nH]c(=O)nc2c1cnn2COCCO`, the TGI in the test on A498 renal, in the test with A549 NSCLC, with HCT-116 colon, with HCT-15 colon, in the test with K-562 leukemia and in the test with MALME-3M melanoma was > 100 µM in each case. Also, the TGI in the test on RPMI-8226 leukemia, with SNB-19 CNS, with SNB-75 CNS and with UACC-257 melanoma was > 100 µM throughout.
Consider `C/C=C\C1OC1(C)c1cc(=O)c2c(C)cc3c(c2o1)C(=O)c1c(O)c(C2CC(C)(N(C)C)C(OC(C)=O)C(C)O2)cc(C2CC(N(C)C)C(O)C(C)O2)c1C3=O` (stereo not drawn), for which the TGI in the test with A498 renal is 0.0215 µM; with A549 NSCLC it was 0.482 µM; with HCT-116 colon it was 0.0429 µM; with HCT-15 colon, 0.0291 µM; in the test with K-562 leukemia, 0.135 µM; with MALME-3M melanoma, 0.0566 µM. Moreover, the TGI stood at 0.0574 µM in the test on RPMI-8226 leukemia, 0.103 µM in the test on SNB-19 CNS, 0.0067 µM with SNB-75 CNS and 0.0366 µM in the test on UACC-257 melanoma.
Take `CC1CC(C)(O)C2C3(C)CCCC2(COC3=O)C12CCC1(CCOC1=O)O2` (stereo not drawn): the TGI with A498 renal was 248 µM; with A549 NSCLC, > 250 µM; in the test on HCT-116 colon it was > 250 µM; with HCT-15 colon, > 250 µM; with K-562 leukemia it was > 250 µM; in the test on MALME-3M melanoma, > 250 µM. Further, the TGI in the test with RPMI-8226 leukemia, with SNB-19 CNS, in the test on SNB-75 CNS and with UACC-257 melanoma was > 250 µM throughout.
Take `COc1cc2cc(C(=O)N3CC(CCl)c4ccc(NO)cc43)[nH]c2c(OC)c1OC` (stereo not drawn): the TGI is > 100 µM in the test on A498 renal; > 100 µM in the test with A549 NSCLC; > 100 µM in the test with HCT-116 colon; > 100 µM in the test on HCT-15 colon; 0.965 µM with K-562 leukemia; 0.317 µM with MALME-3M melanoma. In addition, the TGI in the test on RPMI-8226 leukemia is 0.442 µM; in the test on SNB-19 CNS it was 11.1 µM; in the test on SNB-75 CNS it was 0.47 µM.
Consider `CCOC(=O)C(C(=O)OCC)c1cc(-c2cc3ccccc3o2)oc(=O)c1C#N`, for which the TGI is 70.1 µM in the test on A498 renal; > 100 µM in the test on A549 NSCLC; 44.9 µM with HCT-116 colon; 35.7 µM in the test with HCT-15 colon; > 100 µM in the test with K-562 leukemia; 55.7 µM in the test with MALME-3M melanoma. For the same compound, the TGI is > 100 µM in the test on RPMI-8226 leukemia, > 100 µM in the test with SNB-19 CNS, 90.6 µM in the test on SNB-75 CNS and 76.4 µM in the test with UACC-257 melanoma.
Consider `CC(C)N(CC(=O)O)CC(=O)O`, for which the TGI with A498 renal, in the test with A549 NSCLC, in the test with HCT-116 colon, in the test with HCT-15 colon, in the test with K-562 leukemia and in the test on MALME-3M melanoma was > 100 µM in each case. For the same compound, the TGI with RPMI-8226 leukemia, in the test on SNB-19 CNS, in the test with SNB-75 CNS and with UACC-257 melanoma was > 100 µM throughout.
In the case of `O=C(O)C1=C(CO)Oc2cc3c(cc2C1c1ccc2c(c1)OCO2)OCO3` (stereo not drawn), the TGI in the test with A549 NSCLC, with HCT-116 colon, with HCT-15 colon, with K-562 leukemia, in the test with MALME-3M melanoma and with RPMI-8226 leukemia was > 100 µM each time. The TGI with SNB-19 CNS, in the test with SNB-75 CNS and with UACC-257 melanoma was > 100 µM each time.
Take `O=P1(Oc2ccc(Cl)cc2Cl)Oc2cc3ccccc3cc2O1`: the TGI is > 90.5 µM in the test on A498 renal; > 100 µM in the test with A549 NSCLC; > 100 µM in the test with HCT-116 colon; > 100 µM in the test with HCT-15 colon; > 100 µM in the test with K-562 leukemia; > 100 µM with MALME-3M melanoma. For the same compound, the TGI was > 60.1 µM in the test on RPMI-8226 leukemia, > 100 µM with SNB-19 CNS, > 100 µM in the test on SNB-75 CNS and > 100 µM with UACC-257 melanoma.
With `C=C(C)[C@@H]1CC[C@]2(C(=O)O)CC[C@]3(C)[C@H](CC[C@@H]4[C@@]5(C)C/C(=C/c6ccco6)C(=O)C(C)(C)[C@@H]5CC[C@]43C)[C@@H]12`, the GI50 in the test on A549 NSCLC is 2.12 µM; with HCT-15 colon it was 2.59 µM; in the test with SNB-75 CNS, > 100 µM; in the test on UACC-257 melanoma it was 3.12 µM. Also, the TGI with A549 NSCLC is > 100 µM; in the test with HCT-15 colon, 10.5 µM; in the test with SNB-75 CNS it was > 100 µM; with UACC-257 melanoma, > 100 µM.
